From the supplement of paper PMC10307832

Tests used:
Assay in all cases: relative viability (nuclei count vs DMSO), 5 days (fraction); higher = more cells survive
Dactolisib + Palbociclib = compound: Cn1c(=O)n(-c2ccc(C(C)(C)C#N)cc2)c2c3cc(-c4cnc5ccccc5c4)ccc3ncc21 [Dactolisib] + CC(=O)c1c(C)c2cnc(Nc3ccc(N4CCNCC4)cn3)nc2n(C2CCCC2)c1=O [Palbociclib] (partner 0.5 µM)
How it was run: (§1)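 Lung cancer cell lines in 1536-well plates got either a single drug or a fixed anchor-drug dose together with five library-drug doses (not always all listed) in √10 steps, by pin tool, on the day after seeding. Nuclei were counted after 5 days, and relative viability is the treated-to-vehicle ratio of nuclei counts. Values are medians of duplicate plates.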

Dactolisib + AZD7762 = compound: Cn1c(=O)n(-c2ccc(C(C)(C)C#N)cc2)c2c3cc(-c4cnc5ccccc5c4)ccc3ncc21 [Dactolisib] + NC(=O)Nc1cc(-c2cccc(F)c2)sc1C(=O)N[C@H]1CCCNC1 [AZD7762] (partner 0.2 µM)
How it was run: as §1

AZ505 + Alpelisib = compound: C1CCC(CC1)N(CCNCCC2=C3C(=C(C=C2)O)NC(=O)CO3)C(=O)CCNCCC4=CC(=C(C=C4)Cl)Cl [AZ505] + Cc1nc(NC(=O)N2CCC[C@H]2C(N)=O)sc1-c1ccnc(C(C)(C)C(F)(F)F)c1 [Alpelisib] (partner 2 µM)
How it was run: as §1

Dactolisib + Bortezomib = compound: Cn1c(=O)n(-c2ccc(C(C)(C)C#N)cc2)c2c3cc(-c4cnc5ccccc5c4)ccc3ncc21 [Dactolisib] + CC(C)C[C@H](NC(=O)[C@H](Cc1ccccc1)NC(=O)c1cnccn1)B(O)O [Bortezomib] (partner 0.002 µM)
How it was run: as §1

| Cell Line | relative viability (Dactolisib + Palbociclib; first compound 0.002 µM) | relative viability (Dactolisib + Palbociclib; first compound 0.006325 µM) | relative viability (Dactolisib + Palbociclib; first compound 0.02 µM) | relative viability (Dactolisib + Palbociclib; first compound 0.06325 µM) | relative viability (Dactolisib + Palbociclib; first compound 0.2 µM) | relative viability (Dactolisib + AZD7762; first compound 0.002 µM) | relative viability (Dactolisib + AZD7762; first compound 0.006325 µM) | relative viability (Dactolisib + AZD7762; first compound 0.02 µM) | relative viability (Dactolisib + AZD7762; first compound 0.06325 µM) | relative viability (Dactolisib + AZD7762; first compound 0.2 µM) | relative viability (AZ505 + Alpelisib; first compound 0.08 µM) | relative viability (AZ505 + Alpelisib; first compound 0.253 µM) | relative viability (AZ505 + Alpelisib; first compound 0.8 µM) | relative viability (AZ505 + Alpelisib; first compound 2.53 µM) | relative viability (AZ505 + Alpelisib; first compound 8 µM) | relative viability (Dactolisib + Bortezomib; first compound 0.002 µM) | relative viability (Dactolisib + Bortezomib; first compound 0.006325 µM) | relative viability (Dactolisib + Bortezomib; first compound 0.02 µM) | relative viability (Dactolisib + Bortezomib; first compound 0.06325 µM) | relative viability (Dactolisib + Bortezomib; first compound 0.2 µM) |
| --- | --- | --- | --- | --- | --- | --- | --- | --- | --- | --- | --- | --- | --- | --- | --- | --- | --- | --- | --- | --- |
| NCI-H2342 | 0.556 | 0.535 | 0.505 | 0.454 | 0.466 | 0.511 | 0.49 | 0.444 | 0.471 | 0.413 | – | – | – | – | – | – | – | – | – | – |
| HCC-15 | 0.778 | 0.723 | 0.715 | 0.471 | 0.28 | 1.18 | 1.02 | 1.26 | 1.13 | 0.971 | 0.773 | 0.926 | 0.918 | 0.809 | 0.933 | 0.977 | 0.987 | 0.961 | 0.823 | 0.554 |
| A-427 | 0.547 | 0.529 | 0.498 | 0.428 | 0.401 | 0.749 | 0.698 | 0.688 | 0.498 | 0.306 | 1.08 | 1.11 | 1.04 | 1.01 | 1.08 | 0.947 | 0.959 | 0.966 | 0.61 | 0.581 |
| NCI-H2228 | 0.882 | 0.725 | 0.638 | 0.197 | 0.147 | – | – | – | – | – | 0.627 | 0.554 | 0.677 | 0.69 | 0.748 | 1.08 | 0.81 | 0.541 | 0.259 | 0.18 |
| NCI-H1734 | 0.344 | 0.356 | 0.314 | 0.228 | 0.201 | 0.542 | 0.428 | 0.447 | 0.146 | 0.131 | 0.633 | 0.626 | 0.631 | 0.744 | 0.683 | 0.92 | 0.741 | 0.781 | 0.346 | 0.243 |
| SK-LU-1 | 0.335 | 0.393 | 0.337 | 0.268 | 0.281 | – | – | – | – | – | 0.499 | 0.846 | 0.537 | 0.69 | 0.741 | – | 1.05 | 1.21 | 1.16 | 0.457 |
| PC-14 | 0.654 | 0.487 | 0.446 | 0.0827 | 0.0725 | 0.348 | 0.368 | 0.333 | 0.176 | 0.135 | 0.81 | 0.964 | 0.925 | 0.906 | 0.961 | 0.904 | 0.779 | 0.905 | 0.559 | 0.416 |
| NCI-H1915 | 0.609 | 0.496 | 0.557 | 0.317 | 0.262 | 0.654 | 0.67 | 0.696 | 0.664 | 0.597 | 1.01 | 1.1 | 0.977 | 0.986 | 1.08 | 1.06 | 0.931 | 0.965 | 0.902 | 0.737 |
| NCI-H1666 | 0.628 | 0.624 | 0.673 | 0.622 | 0.579 | 0.81 | 0.98 | 0.807 | 0.727 | 0.656 | 0.899 | 1.01 | 0.867 | 0.999 | 1.05 | 0.859 | 0.756 | 0.722 | 0.392 | 0.404 |
| HCC-366 | 0.402 | 0.349 | 0.232 | 0.102 | 0.0378 | 0.198 | 0.27 | 0.238 | 0.203 | 0.0362 | 0.306 | 0.379 | 0.326 | 0.411 | 0.385 | 0.963 | 1.09 | 0.988 | 0.593 | 0.481 |
| SK-MES-1 | 0.297 | 0.298 | 0.269 | 0.247 | 0.214 | – | – | – | – | – | 0.881 | 0.954 | 0.922 | 0.873 | 0.964 | – | – | – | – | – |
| NCI-H661 | 0.415 | 0.379 | 0.368 | 0.342 | 0.332 | – | – | – | – | – | 0.666 | 0.493 | 0.738 | 0.81 | 0.907 | 0.659 | 0.87 | 0.67 | 0.397 | 0.288 |
| PC-3 [JPC-3] | 0.596 | 0.544 | 0.59 | 0.511 | 0.418 | 0.841 | 0.788 | 0.685 | 0.666 | 0.353 | 0.914 | 0.961 | 0.941 | 0.919 | 0.979 | 0.847 | 0.842 | 0.802 | 0.902 | 0.869 |
| Calu-6 | – | – | – | – | – | – | – | – | – | – | 0.842 | 1.07 | 0.934 | 0.937 | 0.962 | 1.08 | 1.07 | 1.06 | 0.593 | 0.387 |
| LC-2-ad | 0.434 | 0.48 | 0.51 | 0.454 | 0.426 | 0.812 | 0.816 | 0.86 | 0.71 | 0.593 | 0.774 | 0.797 | 0.832 | 0.957 | 0.877 | 1.09 | – | 1.04 | 0.734 | 0.52 |
| CAL-12T | 0.526 | 0.396 | 0.256 | 0.172 | 0.133 | 0.573 | 0.691 | 0.638 | 0.424 | 0.357 | 1.05 | 1.23 | 1.23 | 1.24 | 1.33 | 1.05 | 1.13 | 0.825 | 0.721 | 0.338 |
| RERF-LC-KJ | 1.19 | 1.12 | 0.863 | 0.438 | 0.452 | 1.02 | 0.922 | 0.818 | 0.572 | 0.489 | 0.775 | 0.767 | 0.741 | 0.901 | 0.863 | 1.17 | 0.978 | 1.01 | 0.641 | 0.574 |
| NCI-H1650 | 0.357 | 0.348 | 0.298 | 0.191 | 0.142 | – | – | – | – | – | – | – | – | – | – | 0.224 | 0.213 | 0.212 | 0.208 | 0.228 |
